Source: patent US11058737B2, “Use of Euycoma longifolia extract in alleviating symptoms and/or conditions associated with hormonal imbalance in females” ([…] BERHAD, priority 2018, dated 2021)

Key:
Type in all cases: in vivo, Sprague Dawley rats
ovariectomized rats = assay: Clinical signs of toxicity and mortality in ovariectomized rat model; conditions: 10 mg/kg intramuscular once every 4 weeks, 8 weeks
Experimental: (§1) 48 female Sprague dawley rats were ovariectomized or sham operated. Both sham and ovariectomized rats (n=8) received the vehicle. The remaining 3 group ovariectomized rats were orally administrated with Eurycoma longifolia aqueous extract 100 mg/kg, 300 mg/kg and 500 mg/kg b.w. The treatment continued for 8 weeks. Group 6 ovariectomized rats received testosterone undecanoate (10 mg/kg b.w) through the route of intramuscular injection once in every 4 weeks for 8 weeks. At week 8 of the last dose, sexual behaviors were recorded. Blood was collected for biochemical analysis. Calcium, phosphate, bone alkaline phosphatase (ALP), osteocalcin and hormone profile estimation was done. […]
(§2) In Group 2, only ovariectomy was performed. […] 30 gms feed was added daily to each animal in the morning time and leftover feed was recorded on next day from the same animal cage. […]

ovariectomized rat model [1] = assay: Uterus weight at necropsy; conditions: ovariectomized rats, 10 mg/kg intramuscular once every 4 weeks
Experimental: as §1, §2

ovariectomized rat model [2] = assay: Biochemical estimations: serum calcium, phosphate, bone alkaline phosphatase, osteocalcin; conditions: ovariectomized rats
Experimental: (§3) The test item, i.e. aqueous extract of Eurycoma longifolia, was studied for its capabilities or effect in relation to the alleviation or treatment of menopause symptoms and hormonal activity against ovariectomized rat model in vivo.
(§4) 48 female Sprague dawley rats were ovariectomized or sham operated. Both sham and ovariectomized rats (n=8) received the vehicle. The remaining 3 group ovariectomized rats were orally administrated with Eurycoma longifolia aqueous extract 100 mg/kg, 300 mg/kg and 500 mg/kg b.w. The treatment continued for 8 weeks. Group 6 ovariectomized rats received testosterone undecanoate (10 mg/kg b.w) through the route of intramuscular injection once in every 4 weeks for 8 weeks. At week 8 of the last dose, sexual behaviors were recorded. Blood was collected for biochemical analysis. Calcium, phosphate, bone alkaline phosphatase (ALP), osteocalcin and hormone profile estimation was done.
(§5) Test System • Animal species: Rats • Strain: Sprague Dawley • Justification for Selection of Species: Recommended and Justified by sponsor • Sex: Female • Age: 10-12 weeks (Mohamed et al, 2016) • Source of supply: In house breed • No. of groups: 6 • Group 1: Sham operated group (surgically opened but no ovariectomy) • Group 2: Ovariectomy group (Negative control) • Group 3: Ovariectomy+Low dose extract • Group 4: Ovariectomy+Middle dose extract • Group 5: Ovariectomy+High dose extract • Group 6: Ovariectomy+Testosterone undecanoate (Positive control) • No. of Animals/Group: 8 females/group • Age at Treatment: 12 weeks • Body Weight Range at Receipt: 120-250 gms • Animal Identification: Each animal will be marked by picric acid and numbering will be given individually to each animal. • Acclimatization: The rats were acclimatized for 1 week before treatment.
(§6) In Group 2, only ovariectomy was performed. Group 3, Group 4 and Group 5 received the Eurycoma longifolia aqueous extract daily at low dose (100 mg/kg), middle dose (300 mg/kg) and high dose (500 mg/kg) at respective concentrations orally for 8 weeks, whereas Group 6 received Testosterone undecanoate (10 mg/kg) intramuscular injection once in every 4 weeks for 8 weeks. • (i) Surgical Procedure • Anesthesia was induced by intraperitoneal injection of ketamine HCL (80 mg/kg) and the depth of anesthesia was checked by monitoring respiratory rate or simply testing the animal response to gentle pressure on the hind paws. After the onset of anesthesia, animal was placed under operating area. Clippers were used to clip the skin and shaved fur bilaterally to expose skin. The procedure was carried out by making two incisions to separately reach each ovary. Shaved skin was swab with 70% (v/v) ethanol. Anaesthetized animal was placed on the operating table with its back exposed and its tail towards the operator. A single dorsal incision (1 cm) was made penetrating the skin using small scissors. Incision was made in the lower back, directly below the bottom of the rib cage. Gently subcutaneous connective tissue was made free from the underlying muscle on each side using blunt forceps. Ovary was located under the thin muscle layer and a small incision (less than 1 cm) was made on each side to gain entry to the peritoneal cavity. The edge of the incision was holded securely with tooth forceps and the ovarian fat pad was retracted surrounding ovaries with blunt forceps to expose oviduct. […] 30 gms feed was added daily to each animal in the morning time and leftover feed was recorded on next day from the same animal cage. […]

[3] = Body weight of ovariectomized rats; conditions: 10 mg/kg intramuscular once every 4 weeks
Experimental: as §4, §5
as §6, with “oviduct. Ovary was removed by gently severing the oviduct, using sterile, small scissors. Uterus was replaced and remaining part of the oviduct back into the abdominal cavity. Muscle layer was sutured and procedure was repeated for the other ovary.” for “oviduct.”

ovariectomized rat model [4] = assay: Reproductive hormone levels in rat serum (FSH, LH, progesterone, estrogen, testosterone; CLIA); conditions: ovariectomized rats, 10 mg/kg intramuscular once every 4 weeks, 8 weeks
Experimental: as §3, §4, §5, §6

[5] = serum, 10 mg/kg intramuscular once every 4 weeks, 8 weeks, 10 mg/kg

SMILES: CCCCCCCCCCC(=O)O[C@H]1CC[C@H]2[C@@H]3CCC4=CC(=O)CC[C@]4(C)[C@H]3CC[C@]12C [Testosterone undecanoate]
- No. of Mortality/No. of Animals Dosed (ovariectomized rats): 0/8
- uterus weight, effect after ovariectomy (ovariectomized rat model [1]): prevented the ovariectomy induced loss of uterus weight
- UTERUS WEIGHT (ovariectomized rat model [1]; 8 weeks, 10 mg/kg): 389.74 ± 8.26 mg
- serum osteocalcin levels, change (ovariectomized rat model [2]; positive control 10 mg/kg intramuscular, no significant changes): Decreased serum osteocalcin levels
- Osteocalcin (ovariectomized rat model [2]; serum, 10 mg/kg intramuscular once every 4 weeks, 8 weeks): 7.26 ± 0.20 ng/mL
- Bone Alkaline phosphatase (ovariectomized rat model [2]; [5]): 3.06 ± 0.12 ng/mL
- Calcium (ovariectomized rat model [2]; [5]): 8.48 ± 0.16 mg/dL
- Phosphate (ovariectomized rat model [2]; [5]): 3.29 ± 0.13 mg/dL
- Body Weight ([3]; Basal): 185.0 ± 3.35
- Body Weight ([3]; Week 1): 196.0 ± 3.17
- Body Weight ([3]; Week 2): 207.4 ± 2.99
- Body Weight ([3]; Week 3): 217.8 ± 3.31
- Body Weight ([3]; Week 4): 229.4 ± 3.24
- Body Weight ([3]; Week 5): 238.6 ± 3.33
- Body Weight ([3]; Week 6): 244.8 ± 3.53
- Body Weight ([3]; Week 7): 252.9 ± 4.37
- Body Weight ([3]; Week 8): 259.3 ± 4.85
- Percentage of Weight Gain ([3]; from basal to Week 1): 5.95%
- Percentage of Weight Gain ([3]; from basal to Week 2): 12.11%
- Percentage of Weight Gain ([3]; from basal to Week 3): 17.73%
- Percentage of Weight Gain ([3]; from basal to Week 4): 24.00%
- Percentage of Weight Gain ([3]; from basal to Week 5): 28.97%
- Percentage of Weight Gain ([3]; from basal to Week 6): 32.32%
- Percentage of Weight Gain ([3]; from basal to Week 7): 36.70%
- Percentage of Weight Gain ([3]; from basal to Week 8): 40.16%
- Estrogen (ovariectomized rat model [4]): 12.35 ± 0.25 pg/mL
- FSH (ovariectomized rat model [4]): 3.96±0.22 mlU/ml
- LH (ovariectomized rat model [4]): 3.76±0.11 mlU/ml
- Progesterone (ovariectomized rat model [4]): 3.31 ± 0.15 ng/mL
- Testosterone (ovariectomized rat model [4]): 13.01 ± 0.41 ng/mL
